Several values for one entry are separate records, joined by “and”; a condition that tells them apart may be missing. Identical values can stand only once. Inconclusive results and toxic doses are left out. How the source made its calls: active means survival T/C of 150% or more; inactive means T/C below 125% in these data.
Tested on: CD2F1 mice, L1210 leukemia ip, survival T/C
Test: NCI In Vivo Anticancer Drug Screen. Data for tumor model L1210 Leukemia (intraperitoneal) in CD2F1 (CDF1) mice
Conditions: higher = longer survival
Summary of the method: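 Compound-dosed mice with transplantable tumor versus matched vehicle controls; endpoint ratio T/C reported.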

[1] = endpoint: mean survival time, dose: 100.0 mg/kg/injection, schedule: Q01DX009 (ip), vehicle: saline with Tween-80
[2] = endpoint: mean survival time, dose: 200.0 mg/kg/injection, schedule: Q01DX009 (ip), vehicle: saline with Tween-80
[3] = endpoint: mean survival time, dose: 400.0 mg/kg/injection, schedule: Q01DX009 (ip), vehicle: saline with Tween-80
[4] = endpoint: mean survival time, dose: 25.0 mg/kg/injection, schedule: Q01DX009 (ip), vehicle: saline with Tween-80
[5] = endpoint: mean survival time, dose: 50.0 mg/kg/injection, schedule: Q01DX009 (ip), vehicle: saline with Tween-80
[6] = endpoint: mean survival time, dose: 100.0 mg/kg/injection, schedule: Q04DX003 (ip), vehicle: Klucel (hydroxypropylcellulose) (HPC)
[7] = endpoint: mean survival time, dose: 200.0 mg/kg/injection, schedule: Q04DX003 (ip), vehicle: Klucel (hydroxypropylcellulose) (HPC)
[8] = endpoint: mean survival time, dose: 100.0 mg/kg/injection, schedule: Q04DX003 (ip), vehicle: saline with Tween-80
[9] = endpoint: mean survival time, dose: 200.0 mg/kg/injection, schedule: Q04DX003 (ip), vehicle: saline with Tween-80
[10] = endpoint: mean survival time, dose: 400.0 mg/kg/injection, schedule: Q04DX003 (ip), vehicle: saline with Tween-80

Measured: T/C

O=[N+]([O-])c1ccc(S(=O)(=O)F)c(Cl)c1
inactive: [1] 100 % of control | endpoint: mean survival time, dose: 100.0 mg/kg/injection, schedule: Q04DX003 (ip), vehicle: saline 100 % of control | [2] 100 % of control | endpoint: mean survival time, dose: 200.0 mg/kg/injection, schedule: Q04DX003 (ip), vehicle: saline 101 % of control | [3] 100 % of control | endpoint: mean survival time, dose: 400.0 mg/kg/injection, schedule: Q04DX003 (ip), vehicle: saline 101 % of control

NC(C(=O)O)C(N)C(=O)O (centres undefined)
inactive: [1] 94 % of control | [2] 96 % of control | [3] 96 % of control

Nc1nc2ncc(CN(N=O)c3ccc(C(=O)NC(CCC(=O)O)C(=O)O)cc3)nc2c(=O)[nH]1 (centres undefined)
inactive: endpoint: mean survival time, dose: 10.0 mg/kg/injection, schedule: Q01DX009 (ip), vehicle: water 102 % of control | endpoint: mean survival time, dose: 20.0 mg/kg/injection, schedule: Q01DX009 (ip), vehicle: water 101 % of control | endpoint: mean survival time, dose: 40.0 mg/kg/injection, schedule: Q01DX009 (ip), vehicle: water 98 % of control | endpoint: mean survival time, dose: 80.0 mg/kg/injection, schedule: Q01DX009 (ip), vehicle: distilled water + Tween-80 94 % of control | endpoint: mean survival time, dose: 160.0 mg/kg/injection, schedule: Q01DX009 (ip), vehicle: distilled water + Tween-80 90 % of control

COc1ccc(C=Nc2ccc3c(c2)OCO3)cc1Br
inactive: [4] 98 % of control | [5] 97 % of control | [1] 103 % of control

O=c1c(-c2ccccc2)nn(C2OC(CO)C(O)C(O)C2O)c(=S)n1-c1ccccc1 (centres undefined)
inactive: endpoint: mean survival time, dose: 7.8 mg/kg/injection, schedule: Q01DX005 (ip), vehicle: water 101 % of control | endpoint: mean survival time, dose: 15.6 mg/kg/injection, schedule: Q01DX005 (ip), vehicle: water 96 % of control | endpoint: mean survival time, dose: 31.3 mg/kg/injection, schedule: Q01DX005 (ip), vehicle: water 101 % of control | endpoint: mean survival time, dose: 62.5 mg/kg/injection, schedule: Q01DX005 (ip), vehicle: water 93 % of control | endpoint: mean survival time, dose: 125.0 mg/kg/injection, schedule: Q01DX005 (ip), vehicle: water 101 % of control

N#CC1c2ccccc2C=CN1C(=O)OCC(Cl)(Cl)Cl (centres undefined)
inactive: [6] 102 % of control | [7] 102 % of control | endpoint: mean survival time, dose: 400.0 mg/kg/injection, schedule: Q04DX003 (ip), vehicle: Klucel (hydroxypropylcellulose) (HPC) 103 % of control

c1ccc(NC(Nc2ccccn2)c2ccncc2)nc1
inactive: endpoint: mean survival time, dose: 54.25 mg/kg/injection, schedule: Q04DX003 (ip), vehicle: saline with Tween-80 97 % of control | [8] 102 % of control | endpoint: mean survival time, dose: 108.5 mg/kg/injection, schedule: Q04DX003 (ip), vehicle: saline with Tween-80 103 % of control | [9] 108 % of control | endpoint: mean survival time, dose: 217.0 mg/kg/injection, schedule: Q04DX003 (ip), vehicle: saline with Tween-80 102 % of control | [10] 110 % of control | endpoint: mean survival time, dose: 434.0 mg/kg/injection, schedule: Q04DX003 (ip), vehicle: saline with Tween-80 100 % of control | endpoint: mean survival time, dose: 600.0 mg/kg/injection, schedule: Q04DX003 (ip), vehicle: saline with Tween-80 113 % of control

CCC(Cl)[N+](=O)[O-] (centres undefined)
inactive: endpoint: mean survival time, dose: 50.0 mg/kg/injection, schedule: Q04DX003 (ip), vehicle: Klucel (hydroxypropylcellulose) (HPC) 97 % of control | [6] 107 % of control | [7] 101 % of control

Nc1nc(N)c2nc3c(nc2n1)CCCC3
inactive: endpoint: mean survival time, dose: 100.0 mg/kg/injection, schedule: Q01DX001 (ip), vehicle: saline with Tween-80 95 % of control | endpoint: mean survival time, dose: 200.0 mg/kg/injection, schedule: Q01DX001 (ip), vehicle: saline with Tween-80 87 % of control | endpoint: mean survival time, dose: 400.0 mg/kg/injection, schedule: Q01DX001 (ip), vehicle: saline with Tween-80 87 % of control

NC(=O)c1cnn2ccn(C3OC(CO)C(O)C3O)c12 (centres undefined)
inactive: endpoint: median survival time, dose: 9.63 mg/kg/injection, schedule: Q01DX005 (ip), vehicle: water 102 % of control | endpoint: median survival time, dose: 19.25 mg/kg/injection, schedule: Q01DX005 (ip), vehicle: water 94 % of control | endpoint: median survival time, dose: 38.5 mg/kg/injection, schedule: Q01DX005 (ip), vehicle: water 104 % of control | endpoint: median survival time, dose: 77.0 mg/kg/injection, schedule: Q01DX005 (ip), vehicle: water 100 % of control | endpoint: median survival time, dose: 154.0 mg/kg/injection, schedule: Q01DX005 (ip), vehicle: water 93 % of control

C=C(C)C1(Cc2ccccc2)C(=O)NC(=S)NC1=O
inactive: endpoint: mean survival time, dose: 5.0 mg/kg/injection, schedule: Q01DX001 (ip), vehicle: saline 102 % of control | endpoint: mean survival time, dose: 10.0 mg/kg/injection, schedule: Q01DX001 (ip), vehicle: saline 102 % of control | endpoint: mean survival time, dose: 20.0 mg/kg/injection, schedule: Q01DX001 (ip), vehicle: saline 104 % of control

O=[N+]([O-])c1cc(C2CCCCC2)c(O)c([N+](=O)[O-])c1
inactive: endpoint: mean survival time, dose: 5.0 mg/kg/injection, schedule: Q01DX009 (ip), vehicle: saline with Tween-80 98 % of control | endpoint: mean survival time, dose: 10.0 mg/kg/injection, schedule: Q01DX009 (ip), vehicle: saline with Tween-80 93 % of control | endpoint: mean survival time, dose: 20.0 mg/kg/injection, schedule: Q01DX009 (ip), vehicle: saline with Tween-80 89 % of control

O=[N+]([O-])c1ccc(Sc2ccc([N+](=O)[O-])cc2)cc1
inactive: [8] 88 % of control | [9] 92 % of control

CC[C@H]1CN2CCc3cc(OC)c(OC)cc3[C@@H]2C[C@@H]1C[C@H]1NCCc2cc(O)c(OC)cc21
inactive: endpoint: mean survival time, dose: 0.5 mg/kg/injection, schedule: Q01DX015 (ip), vehicle: saline 107 % of control | endpoint: mean survival time, dose: 1.0 mg/kg/injection, schedule: Q01DX015 (ip), vehicle: saline 110 % of control | endpoint: mean survival time, dose: 2.0 mg/kg/injection, schedule: Q01DX015 (ip), vehicle: saline 122 % of control | endpoint: mean survival time, dose: 8.0 mg/kg/injection, schedule: Q01DX015 (ip), vehicle: saline 115 % of control | endpoint: mean survival time, dose: 16.0 mg/kg/injection, schedule: Q01DX015 (ip), vehicle: saline 89 % of control

C/C(=N/NC(=O)CC#N)c1ccccc1
inactive: [4] 98 % of control | [5] 98 % of control | [1] 98 % of control

COc1ccc(OC)c(/C=C/c2cnnc3ccccc23)c1
inactive: endpoint: mean survival time, dose: 18.75 mg/kg/injection, schedule: Q04DX003 (ip), vehicle: Klucel (hydroxypropylcellulose) (HPC) 102 % of control | endpoint: mean survival time, dose: 37.5 mg/kg/injection, schedule: Q04DX003 (ip), vehicle: Klucel (hydroxypropylcellulose) (HPC) 104 % of control | endpoint: mean survival time, dose: 75.0 mg/kg/injection, schedule: Q04DX003 (ip), vehicle: Klucel (hydroxypropylcellulose) (HPC) 114 % of control | endpoint: mean survival time, dose: 150.0 mg/kg/injection, schedule: Q04DX003 (ip), vehicle: Klucel (hydroxypropylcellulose) (HPC) 104 % of control | endpoint: mean survival time, dose: 300.0 mg/kg/injection, schedule: Q04DX003 (ip), vehicle: Klucel (hydroxypropylcellulose) (HPC) 108 % of control

c1ccc([Te][Te]c2ccccc2)cc1
inactive: endpoint: median survival time, dose: 12.5 mg/kg/injection, schedule: Q01DX009 (ip), vehicle: saline with Tween-80 104 % of control | endpoint: median survival time, dose: 25.0 mg/kg/injection, schedule: Q01DX009 (ip), vehicle: saline with Tween-80 108 % of control | endpoint: median survival time, dose: 50.0 mg/kg/injection, schedule: Q01DX009 (ip), vehicle: saline with Tween-80 104 % of control

CCOC(=O)c1ccc(NC(=O)OCc2ccco2)cc1
inactive: [1] 92 % of control and 98 % of control | endpoint: mean survival time, dose: 100.0 mg/kg/injection, schedule: Q04DX002 (ip), vehicle: saline with Tween-80 88 % of control and 102 % of control | [8] 94 % of control | [2] 92 % of control and 100 % of control | endpoint: mean survival time, dose: 200.0 mg/kg/injection, schedule: Q04DX002 (ip), vehicle: saline with Tween-80 86 % of control and 91 % of control | [9] 87 % of control | [3] 113 % of control and 96 % of control | endpoint: mean survival time, dose: 400.0 mg/kg/injection, schedule: Q04DX002 (ip), vehicle: saline with Tween-80 87 % of control and 88 % of control | [10] 89 % of control

CCCCCCCCCC(=O)N(C)C
inactive: endpoint: mean survival time, dose: 75.0 mg/kg/injection, schedule: Q01DX001 (ip), vehicle: saline 98 % of control | endpoint: mean survival time, dose: 150.0 mg/kg/injection, schedule: Q01DX001 (ip), vehicle: saline 104 % of control

— PubChem BioAssay AID256 (DTP/NCI, 2004)
